According to PubChem BioAssay (NCI):
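Five concentrations, 48 hours, 96-well plates. GI50 = concentration required for 50% inhibition of growth. TGI denotes the concentration required for complete inhibition of growth.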

Legend:
Assay in all cases: NCI anticancer screen, dose series, 48 h
[1] = test system: HOP-62 NSCLC
[2] = test system: NCI-H522 lung
[3] = test system: SF-539 CNS
[4] = test system: SR leukemia
[5] = test system: SW-620 colon
[6] = test system: PC-3 prostate
[7] = test system: RPMI-8226 leukemia
[8] = test system: BT-549 breast
[9] = test system: MCF7 breast

Row | SMILES | TGI [1] | TGI [2] | TGI [3] | TGI [4] [µM] | TGI [5] | TGI [6] [µM] | TGI [7] | GI50 [8] [µM] | TGI [8] [µM] | GI50 [1] | GI50 [9] | TGI [9] | GI50 [2] [µM] | GI50 [6] [µM] | GI50 [7] | GI50 [3] | GI50 [4] [µM] | GI50 [5]
1 | COc1ccc(N2C(=O)[C@@H]3[C@@H]4CC(C)CC[C@@H]4c4c([nH]c5ccccc45)[C@@H]3C2=O)cc1 (stereo partly drawn) | 32.8 µM | > 55 µM | 25.9 µM | > 25.9 | 47.7 µM | – | – | – | – | – | – | – | – | – | – | – | – | –
2 | COC(=O)[C@@H]1CN(C(=O)Cc2ccccc2)C(=O)N1 | > 100 µM | > 100 µM | > 100 µM | > 100 | > 100 µM | > 100 | > 100 µM | – | – | – | – | – | – | – | – | – | – | –
3 | O=C1OCc2nc3c(c(-c4ccccc4C(F)(F)F)c21)C(=O)OC3 | > 100 µM | > 100 µM | > 100 µM | > 100 | > 100 µM | – | > 100 µM | – | – | – | – | – | – | – | – | – | – | –
4 | O=C(c1ccccc1)c1nn(-c2cccc(Cl)c2)c2nc3nc(-c4ccccc4)cc(=O)n3nc12 | > 25 µM | > 25 µM | > 25 µM | > 25 | > 25 µM | > 25 | > 25 µM | > 25 | > 25 | > 25 µM | > 25 µM | > 25 µM | > 25 | > 25 | > 25 µM | > 25 µM | > 25 | > 25 µM
5 | O=C1C=C2SC3C[C@@]24CC1(O)[N+]1=c2c4c(c(O)c4c2=C(C=N4)CC1)N3 | 3.24 µM | 0.789 µM | 2.85 µM | – | 0.809 µM | – | 1.62 µM | – | – | – | – | 0.972 µM | – | – | – | – | – | –
6 | COc1ccc2nc(-c3ccc(N)cc3)sc2c1 | > 100 µM | > 100 µM | > 100 µM | > 100 | > 100 µM | > 100 | – | – | > 100 | – | – | > 100 µM | – | – | – | – | – | –
7 | COC1=CC(=O)[C@@]2(C)C(C)[C@H](c3ccccc3)[C@H]2C1=O (stereo partly drawn) | > 100 µM | > 100 µM | > 100 µM | > 100 | > 100 µM | – | > 100 µM | – | – | – | – | – | – | – | – | – | – | –
8 | Clc1ccc(Cc2nc3cc4ccccc4cc3[nH]2)cc1Cl | 82.9 µM | 29 µM | 41.3 µM | 30.8 | 41.3 µM | 43.4 | > 100 µM | – | 37.2 | – | – | 67.3 µM | – | – | – | – | – | –
9 | Cc1cc2nc3c(N)nn(CCCN(C)C)c3nc2cc1C | > 100 µM | – | > 100 µM | – | > 100 µM | > 100 | > 100 µM | – | > 100 | – | – | > 100 µM | – | – | – | – | – | –
10 | Cc1c2ccncc2c(C)c2c1[nH]c1ccc(O)cc12 | 0.206 µg/mL | 0.172 µg/mL | 1.29 µg/mL | – | 3.94 µg/mL | – | 0.129 µg/mL | – | – | 0.0255 µg/mL | 0.0319 µg/mL | 0.338 µg/mL | – | – | 0.0217 µg/mL | 0.263 µg/mL | – | 0.0267 µg/mL
11 | O=C(CC(C(=O)c1ccsc1)c1cccs1)c1cccs1 (stereo not drawn) | > 100 µM | > 100 µM | > 100 µM | > 100 | > 100 µM | – | > 100 µM | – | – | – | – | – | – | – | – | – | – | –
12 | C=CC[PH+](c1ccccc1)c1ccccc1.C=CC[PH+](c1ccccc1)c1ccccc1.[Pt+2].[S-]c1nc2ccccc2[nH]1.[S-]c1nc2ccccc2[nH]1 | – | – | – | > 100 | – | 5.58 | 3.22 µM | 2.11 | 5.54 | – | 2.57 µM | 9.91 µM | – | 1.62 | 0.401 µM | – | 2.71 | –
13 | COC(OC)c1cccc2c1C(=O)CCC1(CC2)OCCCCO1 | > 100 µM | > 100 µM | > 100 µM | – | > 100 µM | – | > 100 µM | – | – | – | – | – | – | – | – | – | – | –
14 | CCN(CC)C(=O)Cc1[nH][nH]c(=O)c1C(=O)N(CC)CC | > 100 µM | > 100 µM | > 100 µM | > 100 | > 100 µM | – | > 100 µM | – | – | – | – | – | – | – | – | – | – | –
15 | CN1C/C(=C\c2ccccc2)C2=NN(C(N)=S)[C@H](c3ccccc3)[C@@H]2C1 | > 100 µM | > 100 µM | > 100 µM | > 100 | > 100 µM | – | – | – | – | – | – | – | – | – | – | – | – | –
16 | O=S(c1ccc(O)cc1)c1ccc(O)cc1 | > 100 µM | > 100 µM | > 100 µM | – | > 100 µM | – | > 100 µM | – | – | – | – | – | – | – | – | – | – | –
17 | CC(=O)OC1COC(N2C(=O)C(=O)c3ccccc32)C(OC(C)=O)C1OC(C)=O (stereo not drawn) | > 100 µM | > 100 µM | > 100 µM | > 100 | > 100 µM | – | > 100 µM | – | – | – | – | – | – | – | – | – | – | –
18 | C/C(=C\COP(=O)(O)OP(=O)(O)O)CC/C=C(\C)CNc1c(F)c(F)c(F)c(F)c1F | > 100 µM | > 100 µM | > 100 µM | 0.308 | > 100 µM | > 100 | – | – | – | – | – | > 100 µM | – | – | – | – | – | –
19 | COc1cc2c(c(O)c1OC)C(O)C1CCC(=O)N1C2c1ccc2c(c1)OCO2 (stereo not drawn) | > 100 µM | > 100 µM | > 100 µM | > 100 | > 100 µM | > 100 | – | – | > 100 | – | – | > 100 µM | – | – | – | – | – | –
20 | CCCC(O)c1ccc2[nH]c3c(C)cc([N+](=O)[O-])c(C)c3c2c1 (stereo not drawn) | > 100 µM | > 100 µM | > 100 µM | > 100 | > 100 µM | – | > 100 µM | – | – | – | – | – | – | – | – | – | – | –
21 | Cc1cc2c3ccccc3n3c2c2c1OC1(C)CCC(C2C1)C3(C)C (stereo not drawn) | > 25 µM | > 25 µM | > 25 µM | > 25 | > 25 µM | – | > 25 µM | – | – | – | – | – | – | – | – | – | – | –
